The numbers were not newly measured in patent US8222245B2, “Oxadiazole derivatives active on sphingosine-1-phosphate (S1P)” (Glaxo Group Limited, priority 2007, dated 2012), which cites them from elsewhere.

Molecules are shown by their SMILES.

In one data set the test system is circulating lymphocytes. The note with it: animals and man.
The conditions of data set [1]: clinical studies, first 24 hours of treatment.

As to `CCCCCCCCc1ccc(CCC(N)(CO)CO)cc1` [FTY720], the “effect on circulating lymphocytes” value in the data set on circulating lymphocytes is “reduce circulating lymphocytes in animals and man”. Moreover, the bradycardia on treatment result in data set [1] is “bradycardia in the first 24 hours of treatment”.
